Test results taken from patent publication US7160875B2, “Malonamide derivatives” (priority 2003, dated 2007).

Each compound was assayed against γ-secretase (Homo sapiens, UniProt P49768) (assay: in vitro γ-secretase assay (HEK293 membrane fraction, recombinant APP substrate, Abeta ELISA)). Details: γ-secretase inhibition; HEK293 membrane fraction solubilized in 0.25% CHAPSO, C-terminal 100 amino acids of human APP as substrate, Abeta detected by ELISA.
Assay type: biochemical
Source text: The activity of test compounds can be evaluated in assays which measure the proteolytic cleavage of suitable substrates by γ-secretase activity. These can be cellular assays where e.g., a substrate of the γ-secretase is fused in its cytoplasmic domain to a transcription factor. Cells are transfected with this fusion gene and a reporter gene, e.g., firefly luciferase, which expression is enhanced by the transcription factor. Cleavage of the fused substrate by γ-secretase will lead to expression of the reporter gene which can be monitored in appropriate assays. The γ-secretase activity can also be determined in cell-free in vitro […] containing the γ-secretase complex is incubated with a suitable APP-derived substrate which is cleaved to the Abeta peptides. The amount of produced peptides can be determined with specific ELISA assays. Cell lines of neuronal origin secrete Abeta peptides which can be measured with the specific ELISA assay. Treatment with compounds which inhibit γ-secretase leads to a reduction of secreted Abeta thus providing a measure of inhibition. The in vitro assay of γ-secretase activity uses a HEK293 membrane fraction as a source of γ-secretase and a recombinant APP substrate. The latter consist of the C-terminal 100 amino acids of human APP fused to a 6× Histidin tail for purification which is expressed in E. coli in a regulatable expression vector, e.g. pEt15. This recombinant protein corresponds to the truncated APP fragment which results after […] of the extracellular domain and which constitutes the γ-secretase substrate. The assay principle is described in Li Y M et al, PNAS 97(11), 6138-6143 (2000). Hek293 cells are mechanically disrupted, and the microsomal fraction is isolated by differential centrifugation. The membranes are solubilized in detergent (0.25% CHAPSO) and incubated with the APP substrate. The Abeta peptides which are produced by γ-secretase cleavage of the substrate are detected by specific ELISA assays as described (Brockhaus M et al, Neuroreport 9(7), 1481-1486 (1998).

“5-Methyl-4-oxo-(3S)-[(2RS)-(2,2,3,3,3-pentafluoro-propylcarbamoyl)-propionylamino]-2,3,4,5-tetrahydro-benzo[b][1,4]diazepine-1-carboxylic acid cyclopropylmethyl estermalonamide [Example 106]” and `CC(C(=O)NCC(F)(F)C(F)(F)F)C(=O)N[C@H]1CN(S(=O)(=O)C(F)(F)F)c2ccccc2N(C)C1=O` (mixture of isomers) [Example 95, (2RS)-Methyl-N-((3S)-1-methyl-2-oxo-5-trifluorromethanesulfonyl-2,3,4,5-tetrahydro-1H-benzo[b][1,4]diazepin-3-yl)-N′-(2,2,3,3,3-pentafluoro-propyl)-malonamide] are within 1.5-fold of each other in IC50: 90 nM for the first, 71 nM for the second.

Going from `CC(C(=O)NCC(F)(F)C(F)(F)F)C(=O)N[C@H]1CN(C(=O)OCC2CC2)c2ccccc2N(CC(F)(F)F)C1=O` (mixture of isomers) [Example 109, 4-Oxo-(3S)-[(2RS)-(2,2,3,3,3-pentafluoro-propylcarbamoyl)-propionylamino]-5-(2,2,2-trifluoro-ethyl)-2,3,4,5-tetrahydro-benzo[b][1,4]diazepine-1-carboxylic Acid Cyclopropylmethyl Ester] to `CC(C)(C(=O)NCC(F)(F)C(F)(F)F)C(=O)N[C@@H]1C(=O)Nc2ccccc2-c2ccccc21` [Example 67, 2,2-Dimethyl-N-((S)-6-oxo-6,7-dihydro-5H-dibenzo[b,d]azepin-7-yl)-N′-(2,2,3,3,3-pentafluoro-propyl)-malonamide], the IC50 falls from 48 nM to 4 nM (12-fold). The second is the more potent here.
